# According to patent US5672707A (priority 1991, dated 1997):
# Read-outs that look alike come from different tables or passages of the source.
# What was measured:
# [1] = in vivo; conditions: for LD50: in vivo, ip
# Description: (§1) Psychoneurotropic activity of the declared compounds and their influence on learning and memory were observed using unbred male (18-20 g) mice and 180-200 g) rats, held at standard conditions (room temperature 21°-22° C., 12-hours lighting schedule, food and water ad libitum).
# Acute toxicity was studied by the method of Kerber with intra peritoneal drug injection.
# [2] = system: mice; test: Psychotropic activity test: motor activity; format: in vivo; conditions: intraperitoneally, dose 1/20 of LD
# [3] = system: K channels; test: Ionic permeabilities of excitable membranes, voltage clamp in the Ranvier node; format: cell-based, frog
# [4] = biological target: T1, Acetylcholinesterase, enzyme from human erythrocytes (Homo sapiens, UniProt P22303); test: Acetylcholinesterase inhibition, spectrophotometric technique of Ellman; format: biochemical; conditions: enzyme from human erythrocytes, Table 5; for IC50: Acetylcholinesterase inhibition IC50 (M)
# T1 construct: on the enzyme from human erythrocytes; from tissue; host or cells: human erythrocytes
# T1 sequence (P22303-2 with tags, fused parts or gaps limits assumed): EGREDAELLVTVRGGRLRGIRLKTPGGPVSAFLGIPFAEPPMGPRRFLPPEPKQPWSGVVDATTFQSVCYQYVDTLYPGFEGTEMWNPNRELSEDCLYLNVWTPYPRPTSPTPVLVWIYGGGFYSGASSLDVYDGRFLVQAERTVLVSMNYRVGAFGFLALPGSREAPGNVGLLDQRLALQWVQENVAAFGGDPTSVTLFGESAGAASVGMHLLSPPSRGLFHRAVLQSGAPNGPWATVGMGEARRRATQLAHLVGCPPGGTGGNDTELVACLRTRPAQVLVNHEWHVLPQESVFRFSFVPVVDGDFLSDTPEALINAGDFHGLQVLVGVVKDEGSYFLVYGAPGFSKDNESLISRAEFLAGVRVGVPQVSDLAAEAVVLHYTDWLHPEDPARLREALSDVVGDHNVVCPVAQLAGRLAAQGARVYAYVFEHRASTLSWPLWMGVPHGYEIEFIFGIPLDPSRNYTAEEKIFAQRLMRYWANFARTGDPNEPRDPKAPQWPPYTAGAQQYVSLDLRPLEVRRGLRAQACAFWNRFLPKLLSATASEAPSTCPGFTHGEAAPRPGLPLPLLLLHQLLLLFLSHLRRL
# Description: Acetylcholinesterase inhibition under the action of preparations was assessed by the spectrophotometric technique of Ellman on the enzyme from human erythrocytes.
# [5] = system: rat adipocytes; test: Lipid content in incubation medium after incubation of adipocytes; format: cell-based; conditions: for FFA/TG in incubation medium / PL/CL in incubation medium / PL/TG in incubation medium: Table 12
# Description: (§2) Lipid regulative activity of the declared compounds--derivatives of 9-amino acridine--were evaluated in vitro[…] using rat adipocytes. Adipocytes were separated from adipose tissue of testis appendages of adult male rats. Lipid composition analysis was performed by the method of thin-layer chromatography.
# (§3) Quantitative analysis of phospholipids (PL), mono- and diacylglycerides (MDG), triacylglycerides (TG), free fatty acids (FFA), free cholesterol (FCL), and methyl esters of fatty acids (MEFA) was performed by the method of spectrophotometry.
# [6] = system: mice; test: Step-down test, scopolamine induced amnesia; format: in vivo
# Description: as §1
# [7] = system: rat adipocytes; test: Lipid composition of adipocytes after incubation with compounds; format: cell-based; conditions: for FFA/TG in adipocytes / PL/CL in adipocytes / PL/TG in adipocytes: cells, Table 11; for FFAc/FFAm / PLc/PLm: distribution between cells and incubation medium, Table 13
# Description: as §2, §3
# [8] = system: mice; test: Psychotropic activity test: arecoline induced hyperkynesis; format: in vivo; conditions: intraperitoneally, dose 1/20 of LD
# [9] = system: rats; test: Passive avoidance test in normal rats, 50% acquisition; format: in vivo; conditions: for change in vivo at 0.1 mg/kg: Rattus norvegicus, 20 min, read-out: Increase of the number of correct trails (% to control). Passive avoidance test (rats)
# Description: as §1
# (§4) The influence of drugs on reflex conditioning in rats was studied by the passive avoidance test in conditions of 50% acquisition. The effect of the compound was estimated by the increase of the relative number of learned animals with respect to that of control group. […] The other reference drug--noothropic agent piracetam--was given in the dose 250 mg/kg 60 min before training. Amnestic syndrome was stimulated by 20 days application of Sc at the daily dose of 1 mg/kg intraperitoneally. […] The passive avoidance test was performed within 24 hours after the last application of test preparations.
# [10] = system: rats; test: Passive avoidance test on the model of amnestic syndrome (multiple scopolamine injection); format: in vivo
# Description: The influence of drugs on reflex conditioning in rats was studied by the passive avoidance test in conditions of 50% acquisition. The effect of the compound was estimated by the increase of the relative number of learned animals with respect to that of control group. […] The passive avoidance test was performed within 24 hours after the last application of test preparations.
# [11] = system: membranes of brain synaptosomes; test: Microviscosity of brain synaptosome membranes, old rats; format: in vivo; conditions: old rats (18 month), 20 days application
# Description: Microviscosity of membranes of brain synaptosomes was studied with the use of molecular probe pirren. Brain tissue homogenization and preparation of synaptosomes were performed by the method of De Robertis.
# [12] = system: membranes of brain synaptosomes; test: Microviscosity of brain synaptosome membranes, amnestic syndrome model; format: in vivo, rats; conditions: for Microviscosity changes in % to control: rats, scopolamine 20 days, then drug 10 days, brain synaptosomes
# [13] = system: old rats; test: Passive avoidance test in old rats; format: in vivo; conditions: for Passive avoidance latency in 7 days after training: old rats (18 month), 20 days application, 1 mg/kg (piracetam 250 mg/kg)
# Description: as §4
# Improvement of animal performance was accompanied by the normalizing of brain synaptosomes microviscosity under the action of all the substances tested. […] The latter observation indicates to the possible interference of amiridine and substance Vo into the processes of atherogenesis in old animals.
# [14] = system: brain synaptosomes; test: Cholesterol content in brain synaptosomes, old rats; format: in vivo; conditions: for Cholesterol content of brain synaptosomes, old rats: 20 days course; for Cholesterol content in synaptosomes (% from total lipid content): old rats (18 month), 20 days application
# [15] = intraperitoneal injection, Table 5
# [16] = rats, scopolamine 1 mg/kg 20 days, then drug 10 days (1 mg/kg; piracetam 250 mg/kg)
# [17] = intraperitoneal injection, Table 5, read-out: LD50 (mg/kg) by Kerber
# [18] = ip, rats, 0.1 mg/kg i.p. 20 min before training, piracetam 250 mg/kg 60 min before training
smiles,measurement,setting,value
Cc1ccc(CNc2c3c(nc4ccccc24)CC(C)(C)CC3O)c(C)c1 (stereo not drawn) [VIj],LD50 (mg/kg) by Kerber,[1]; [15],33.4 ± 3.2 mg/kg
same,Motor activity increment (% to control),[2],55 % to control
same,The shift of activation region of K channels: substance lowest concentrations in M producing measureable shift of 1-2 mV,[3],no effect
same,IC50,[4],2.5e-06 M
same,FFA/TG in incubation medium,[5],1.03
same,PL/CL in incubation medium,[5],0.65
same,PL/TG in incubation medium,[5],0.62
same,Antiamnestic activity in Step-down test (% of mice with latency > cut off),[6],0 % of mice
same,FFA/TG in adipocytes,[7],1.08
same,PL/CL in adipocytes,[7],0.80
same,PL/TG in adipocytes,[7],0.85
same,FFAc/FFAm,[7],0.95
same,PLc/PLm,[7],1.24
same,Increase of duration of arecoline induced hyperkynesis (% to control),[8],13 % to control
same,Performance of normal rats in passive avoidance test,[9]; normal rats,statistically significantly improved performance of normal rats
same,Increase of the number of correct trails (% to control). Passive avoidance test (rats),"[9]; rats, 0.1 mg/kg i.p. 20 min before training, piracetam 250 mg/kg 60 min before training",40 % to control
CCCCNc1c2c(nc3ccccc13)CC(C)(C)CC2=O [Vp],LD50 (mg/kg) by Kerber,[1]; [15],200.0 ± 21.9 mg/kg
same,Passive avoidance latency,[10]; [16],170.3 ± 14.9 s
same,Motor activity increment (% to control),[2],69 % to control
same,Capability to induce the shift of potassium permeability voltage dependency,[3],most pronounced capability to induce the shift of potassium permeability voltage dependency
same,Microviscosity changes (% to control),[11],97.9 % to control
same,Microviscosity changes in % to control,[12],93.8 % to control
same,Performance of old rats in passive avoidance test,"[13]; 20 days course, age 18 months",improved performance of old rats (age 18 months) in passive avoidance test more significantly than in 6 month old adult rats
same,Passive avoidance latency in 7 days after training,[13],169.4 ± 10.5 s
same,"Cholesterol content of brain synaptosomes, old rats",[14],normalized the cholesterol content of brain synaptosomes
same,Cholesterol content in synaptosomes (% from total lipid content),[14],30.1 ± 2.4 % from total lipid content
same,FFA/TG in incubation medium,[5],0.92
same,PL/CL in incubation medium,[5],0.65
same,PL/TG in incubation medium,[5],0.52
same,Antiamnestic activity in Step-down test,[6],"pronounced antiatonestic activity, comparable with that of amiridine and tacrine"
same,Antiamnestic activity in Step-down test (% of mice with latency > cut off),[6],25 % of mice
same,Lipid-regulative effect compared with probucol,[7],not inferior
same,FFA/TG in adipocytes,[7],1.03
same,PL/CL in adipocytes,[7],0.83
same,PL/TG in adipocytes,[7],0.89
same,FFAc/FFAm,[7],0.93
same,PLc/PLm,[7],1.41
same,Increase of duration of arecoline induced hyperkynesis (% to control),[8],0 % to control
same,change in vivo at 0.1 mg/kg,[9]; ip,25%
"Nc1c2c(nc3ccccc13)CCCC2 [Tacrine, tacrine, reference compound]",LD50,[1]; [17],35.5 ± 1.8 mg/kg
same,LD50,[1]; read-out: LD,52 mg/kg
same,Passive avoidance latency,[10]; 1 mg/kg,169.0 ± 14.8 s
same,Motor activity increment (% to control),[2],0 % to control
same,Microviscosity changes (% to control),[11],101.4 % to control
same,Microviscosity changes in % to control,[12],97.2 % to control
same,Passive avoidance latency in 7 days after training,[13],163.4 ± 16.5 s
same,Cholesterol content in synaptosomes (% from total lipid content),[14],39.7 ± 1.4 % from total lipid content
same,Antiamnestic activity in Step-down test (% of mice with latency > cut off),[6],33 % of mice
same,Increase of duration of arecoline induced hyperkynesis (% to control),[8],88 % to control
same,change in vivo at 0.1 mg/kg,[9]; ip,25%
CCCCNc1c2c(nc3ccccc13)CC(C)(C)CC2=O [Vo],"Performance in passive avoidance test, amnestic syndrome",[10]; 10 days application course,improved performance in passive avoidance test in the 10 days application course to the level achieved under the treatment with reference drugs
same,"Microviscosity of brain synaptosomes, amnestic syndrome",[12]; 10 days application course,normalizing of microviscosity of brain synaptosomes
same,Ejection of triacylglycerides into external medium,[5],enhanced ejection of triacylglycerides into external medium
same,Change of lipid composition in adipocytes,[7],Accumulation of phospholipids in a cell
same,Content of methyl esters of fatty acids in adipocytes,[7],sharp decreases
same,PL/TG relations and cell cholesterol level,[7],increase PL/TG relations and decrease cell cholesterol level
same,Potency of effect on lipid composition of adipocytes,[7],most potent effect on lipid composition of adipocytes
"NC(=O)CN1CCCC1=O [Piracetam, piracetam, reference compound]",LD50,[1]; [17],1000 mg/kg
same,Passive avoidance latency,[10]; [16],162.3 ± 13.3 s
same,Motor activity increment (% to control),[2],0 % to control
same,Passive avoidance latency in 7 days after training,[13],120.0 ± 24.3 s
same,Acetylcholinesterase inhibition IC50 (M),[4],no effect
same,Increase of duration of arecoline induced hyperkynesis (% to control),[8],0 % to control
same,change in vivo at 0.1 mg/kg,[9],63%
"Nc1c2c(nc3c1CCC3)CCCC2 [Amiridine, amiridine, reference compound]",LD50,[1]; [17],52 ± 3.4 mg/kg
same,LD50,[1]; read-out: LD,35 mg/kg
same,Passive avoidance latency,[10]; [16],149.0 ± 11.7 s
same,Motor activity increment (% to control),[2],45 % to control
same,Microviscosity changes (% to control),[11],101.7 % to control
same,Microviscosity changes in % to control,[12],105.0 % to control
same,Passive avoidance latency in 7 days after training,[13],116.1 ± 16.9 s
same,"Cholesterol content of brain synaptosomes, old rats",[14],normalized the cholesterol content of brain synaptosomes
same,Cholesterol content in synaptosomes (% from total lipid content),[14],33.2 ± 0.8 % from total lipid content
same,Antiamnestic activity in Step-down test (% of mice with latency > cut off),[6],33 % of mice
same,Increase of duration of arecoline induced hyperkynesis (% to control),[8],100 % to control
same,change in vivo at 0.1 mg/kg,[9]; [18],70%
"CN1[C@@H]2C[C@@H](OC(=O)[C@H](CO)c3ccccc3)C[C@H]1[C@@H]1O[C@@H]12 [Scopolamine (Sc), scopolamine]",Passive avoidance latency,[10]; [16],70.4 ± 10.5 s
CC1(C)CC(=O)c2c(nc3ccccc3c2NCc2ccc(Cl)cc2)C1 [Vf],LD50,[1]; [17],> 1000 mg/kg
same,Motor activity increment (% to control),[2],13 % to control
same,The shift of activation region of K channels: substance lowest concentrations in M producing measureable shift of 1-2 mV,[3],no effect
same,IC50,[4],8e-05 M
same,Antiamnestic activity in Step-down test (% of mice with latency > cut off),[6],0 % of mice
same,Increase of duration of arecoline induced hyperkynesis (% to control),[8],0 % to control
same,change in vivo at 0.1 mg/kg,[9]; [18],0%
